Assay results reported in ChEMBL document CHEMBL6114980, “Single or double lipid-modified ultra-short antimicrobial peptides for treating infections caused by resistant bacteria” (Eur J Med Chem, 2025).
Values after ≈ are worked out from the molar mass of the structure shown.

Tests used:
Format in all cases: functional
[1] = test system: Acinetobacter baumannii; experiment: Antibacterial activity against Acinetobacter baumannii ATCC 19606 assessed as reduction in bacterial growth incubated for 18 to 24 hrs by broth microdilution method; conditions: time 18-24 hrs
[2] = test system: Klebsiella pneumoniae; experiment: Antibacterial activity against Klebsiella pneumoniae ATCC 700603 assessed as reduction in bacterial growth incubated for 18 to 24 hrs by broth microdilution method; conditions: time 18-24 hrs
[3] = test system: Escherichia coli; experiment: Antibacterial activity against Escherichia coli ATCC 25922 assessed as reduction in bacterial growth incubated for 18 to 24 hrs by broth microdilution method; conditions: time 18-24 hrs
[4] = test system: Pseudomonas aeruginosa; experiment: Antibacterial activity against Pseudomonas aeruginosa ATCC 27853 assessed as reduction in bacterial growth incubated for 18 to 24 hrs by broth microdilution method; conditions: time 18-24 hrs
[5] = test system: Staphylococcus aureus; experiment: Antibacterial activity against methicillin-resistant Staphylococcus aureus ATCC 33591 assessed as reduction in bacterial growth incubated for 18 to 24 hrs by broth microdilution method; conditions: time 18-24 hrs
[6] = test system: Staphylococcus aureus; experiment: Antibacterial activity against methicillin-resistant Staphylococcus aureus 75 assessed as reduction in bacterial growth incubated for 18 to 24 hrs by broth microdilution method; conditions: time 18-24 hrs
[7] = test system: Staphylococcus aureus; experiment: Antibacterial activity against Staphylococcus aureus 125 assessed as reduction in bacterial growth incubated for 18 to 24 hrs by broth microdilution method; conditions: time 18-24 hrs
[8] = test system: Staphylococcus aureus; experiment: Antibacterial activity against Staphylococcus aureus 794 assessed as reduction in bacterial growth incubated for 18 to 24 hrs by broth microdilution method; conditions: time 18-24 hrs
[9] = test system: Enterococcus faecalis; experiment: Antibacterial activity against Enterococcus faecalis ATCC 29212 assessed as reduction in bacterial growth incubated for 18 to 24 hrs by broth microdilution method; conditions: time 18-24 hrs
[10] = test system: Staphylococcus epidermidis; experiment: Antibacterial activity against Staphylococcus epidermidis ATCC 12228 assessed as reduction in bacterial growth incubated for 18 to 24 hrs by broth microdilution method; conditions: time 18-24 hrs
[11] = test system: Staphylococcus aureus; experiment: Antibacterial activity against Staphylococcus aureus ATCC 25923 assessed as reduction in bacterial growth incubated for 18 to 24 hrs by broth microdilution method; conditions: time 18-24 hrs
[12] = test system: Acinetobacter baumannii; experiment: Antibacterial activity against Acinetobacter baumannii 5444 assessed as reduction in bacterial growth incubated for 18 to 24 hrs by broth microdilution method; conditions: time 18-24 hrs
[13] = test system: Acinetobacter baumannii; experiment: Antibacterial activity against Acinetobacter baumannii 92359 assessed as reduction in bacterial growth incubated for 18 to 24 hrs by broth microdilution method; conditions: time 18-24 hrs
[14] = test system: Escherichia coli; experiment: Antibacterial activity against Escherichia coli 850 assessed as reduction in bacterial growth incubated for 18 to 24 hrs by broth microdilution method; conditions: time 18-24 hrs
[15] = test system: Escherichia coli; experiment: Antibacterial activity against Escherichia coli 780 assessed as reduction in bacterial growth incubated for 18 to 24 hrs by broth microdilution method; conditions: time 18-24 hrs
[16] = test system: Pseudomonas aeruginosa; experiment: Antibacterial activity against Pseudomonas aeruginosa 124 assessed as reduction in bacterial growth incubated for 18 to 24 hrs by broth microdilution method; conditions: time 18-24 hrs
[17] = test system: Pseudomonas aeruginosa; experiment: Antibacterial activity against Pseudomonas aeruginosa 6434N assessed as reduction in bacterial growth incubated for 18 to 24 hrs by broth microdilution method; conditions: time 18-24 hrs
[18] = test system: Staphylococcus aureus; experiment: Antibacterial activity against Staphylococcus aureus assessed as reduction in survival bacterial growth in presence of NaCl measured after 18 to 24 hrs (reference value: 8 microM); conditions: time 18-24 hrs
[19] = test system: Staphylococcus aureus; experiment: Antibacterial activity against Staphylococcus aureus assessed as reduction in survival bacterial growth in presence of Mgcl2 measured after 18 to 24 hrs (reference value: 8 microM); conditions: time 18-24 hrs
[20] = test system: Staphylococcus aureus; experiment: Antibacterial activity against Staphylococcus aureus assessed as reduction in survival bacterial growth in presence of ZnCl2 measured after 18 to 24 hrs (reference value: 8 microM); conditions: time 18-24 hrs
[21] = test system: Staphylococcus aureus; experiment: Antibacterial activity against Staphylococcus aureus assessed as reduction in survival bacterial growth in presence of KCl measured after 18 to 24 hrs (reference value: 8 microM); conditions: time 18-24 hrs
[22] = test system: Staphylococcus aureus; experiment: Antibacterial activity against Staphylococcus aureus assessed as reduction in survival bacterial growth in presence of FeCl3 measured after 18 to 24 hrs (reference value: 8 microM); conditions: time 18-24 hrs
[23] = test system: Escherichia coli; experiment: Antibacterial activity against Escherichia coli assessed as reduction in survival bacterial growth in presence of NaCl measured after 18 to 24 hrs (reference value: 2 microM); conditions: time 18-24 hrs
[24] = test system: Escherichia coli; experiment: Antibacterial activity against Escherichia coli assessed as reduction in survival bacterial growth in presence of MgCl2 measured after 18 to 24 hrs (reference value: 2 microM); conditions: time 18-24 hrs
[25] = test system: Escherichia coli; experiment: Antibacterial activity against Escherichia coli assessed as reduction in survival bacterial growth in presence of ZnCl2 measured after 18 to 24 hrs (reference value: 2 microM); conditions: time 18-24 hrs
[26] = test system: Escherichia coli; experiment: Antibacterial activity against Escherichia coli assessed as reduction in survival bacterial growth in presence of KCl measured after 18 to 24 hrs (reference value: 2 microM); conditions: time 18-24 hrs
[27] = test system: Escherichia coli; experiment: Antibacterial activity against Escherichia coli assessed as reduction in survival bacterial growth in presence of FeCl3 measured after 18 to 24 hrs (reference value: 2 microM); conditions: time 18-24 hrs
[28] = test system: Escherichia coli; experiment: Antibacterial activity against Escherichia coli assessed as reduction in survival bacterial growth by measuring fold change in presence of ZnCl2 measured after 18 to 24 hrs; conditions: time 18-24 hrs
[29] = test system: Escherichia coli; experiment: Antibacterial activity against Escherichia coli assessed as reduction in survival bacterial growth by measuring fold change in presence of MgCl2 measured after 18 to 24 hrs; conditions: time 18-24 hrs
[30] = test system: Staphylococcus aureus; experiment: Antibacterial activity against Staphylococcus aureus assessed as reduction in survival bacterial growth by measuring fold change in presence of MgCl2 measured after 18 to 24 hrs; conditions: time 18-24 hrs
[31] = test system: Escherichia coli; experiment: Antibacterial activity against Escherichia coli assessed as reduction in survival bacterial growth by measuring fold change in presence of NaCl measured after 18 to 24 hrs; conditions: time 18-24 hrs
[32] = test system: Staphylococcus aureus; experiment: Antibacterial activity against Staphylococcus aureus assessed as reduction in survival bacterial growth by measuring fold change in presence of NaCl measured after 18 to 24 hrs; conditions: time 18-24 hrs
[33] = test system: Escherichia coli; experiment: Bactericidal activity against Escherichia coli 25922 assessed as eradication of bacteria at 2 times MIC measured within 1 hr by time-kill assay relative to control
[34] = test system: Klebsiella pneumoniae; experiment: Antibacterial activity against Klebsiella pneumoniae ATCC 700603 infected in male BALB/c mouse lung infection model assessed as reduction in bacterial load at 5 mg/kg, ip measured after 6 to 36 hrs (reference value: 1.77 10^6CFU/mg); conditions: time 6-36 hrs
[35] = test system: Staphylococcus aureus; experiment: Antibacterial activity against Staphylococcus aureus 113 assessed as reduction in bacterial growth incubated for 18 to 24 hrs by broth microdilution method; conditions: time 18-24 hrs
[36] = test system: Bacillus subtilis; experiment: Antibacterial activity against Bacillus subtilis ATCC 23857 assessed as reduction in bacterial growth incubated for 18 to 24 hrs by broth microdilution method; conditions: time 18-24 hrs
[37] = test system: Staphylococcus aureus; experiment: Drug resistance, ratio of MIC for Staphylococcus aureus 25923 after 4 passages exposure to MIC for Staphylococcus aureus 25923 during first exposure
[38] = test system: Staphylococcus aureus; experiment: Drug resistance, ratio of MIC for Staphylococcus aureus 25923 after 15 passages exposure to MIC for Staphylococcus aureus 25923 during first exposure
[39] = test system: Escherichia coli; experiment: Drug resistance, ratio of MIC for Escherichia coli 25922 after 7 passages exposure to MIC for Escherichia coli 25922 during first exposure
[40] = test system: Escherichia coli; experiment: Drug resistance, ratio of MIC for Escherichia coli 25922 after 15 passages exposure to MIC for Escherichia coli 25922 during first exposure

Compound	MIC [1]	MIC [2]	MIC [3]	MIC [4]	MIC [5]	MIC [6]	MIC [7]	MIC [8]	MIC [9]	MIC [10]	MIC [11]	MIC [12]	MIC [13]	MIC [14]	MIC [15]	MIC [16]	MIC [17]	further results
CC(C)CCCCC(=O)N[C@@H](CCN)C(=O)N[C@H](C(=O)N[C@@H](CCN)C(=O)N[C@H]1CCNC(=O)[C@H]([C@@H](C)O)NC(=O)[C@H](CCN)NC(=O)[C@H](CCN)NC(=O)[C@H](CC(C)C)NC(=O)[C@@H](Cc2ccccc2)NC(=O)[C@H](CCN)NC1=O)[C@@H](C)O.CC[C@H](C)CCCCC(=O)N[C@@H](CCN)C(=O)N[C@H](C(=O)N[C@@H](CCN)C(=O)N[C@H]1CCNC(=O)[C@H]([C@@H](C)O)NC(=O)[C@H](CCN)NC(=O)[C@H](CCN)NC(=O)[C@H](CC(C)C)NC(=O)[C@@H](Cc2ccccc2)NC(=O)[C@H](CCN)NC1=O)[C@@H](C)O	4 µM	4 µM	2 µM	4 µM	16 µM	16 µM	8 µM	16 µM	128 µM	8 µM	8 µM	32 µM	32 µM	4 µM	4 µM	16 µM	2 µM	MIC [18]: 128 µM; MIC [19]: 16 µM; MIC [20]: 8 µM; MIC [21]: 8 µM; MIC [22]: 8 µM; MIC [23]: 2 µM; MIC [24]: 2 µM; MIC [25]: 1 µM; MIC [26]: 2 µM; MIC [27]: 2 µM; fold change (FC) [28]: 2; fold change (FC) [29]: 2; fold change (FC) [30]: 2; fold change (FC) [31]: 16; fold change (FC) [32]: 16; Activity [33]: 100%; Activity [34]: 1.54 10^4CFU/mg
CO[C@H]1/C=C/O[C@@]2(C)Oc3c(C)c(O)c4c(O)c(c(/C=N/N5CCN(C)CC5)c(O)c4c3C2=O)NC(=O)/C(C)=C\C=C\[C@H](C)[C@H](O)[C@@H](C)[C@@H](O)[C@@H](C)[C@H](OC(C)=O)[C@@H]1C [RIFAMPIN]	1 µM (≈ 0.823 µg/mL)	16 µM (≈ 13.2 µg/mL)	8 µM (≈ 6.58 µg/mL)	32 µM (≈ 26.3 µg/mL)	128 µM (≈ 105 µg/mL)	128 µM (≈ 105 µg/mL)	1 µM (≈ 0.823 µg/mL)	4 µM (≈ 3.29 µg/mL)	1 µM (≈ 0.823 µg/mL)	1 µM (≈ 0.823 µg/mL)	1 µM (≈ 0.823 µg/mL)	16 µM (≈ 13.2 µg/mL)	16 µM (≈ 13.2 µg/mL)	16 µM (≈ 13.2 µg/mL)	16 µM (≈ 13.2 µg/mL)	128 µM (≈ 105 µg/mL)	16 µM (≈ 13.2 µg/mL)	MIC [35]: 1 µM (≈ 0.823 µg/mL); MIC [36]: 1 µM (≈ 0.823 µg/mL); fold change (FC) [37]: 8; fold change (FC) [38]: 512; fold change (FC) [39]: 8; fold change (FC) [40]: 64
